Source: ChEMBL document CHEMBL3734667 (Bioorg Med Chem, 2015)
Calls of active or inactive are those of the source. No cut-off for these calls is given here.

Tested on: not listed separately
Experiment: Cytotoxicity against human MT4 cells assessed as cell viability after 96 hrs by MTT assay
Type: cell-based
Details: not given

Row | SMILES | CC50 at 96 h [µM]
1 | CC(=O)Nc1ccc(-n2nc3ccccc3n2)cc1 | 66
2 | COc1ccc2nn(-c3ccc(OCC(C)(C)C(=O)O)cc3)nc2c1 | ≥ 100
3 | COc1ccc(-n2nc3ccc(C(F)(F)F)cc3n2)cc1 | > 100
4 | FC(F)(F)c1ccc2c(c1)nnn2C[C@@H]1CCCN2CCCC[C@H]12 | > 100

Tested on: not listed separately
Experiment: Cytotoxicity against MDBK cells assessed as cell viability after 48 to 96 hrs by MTT assay
Type: cell-based, Bos taurus
Details: cattle

Row | SMILES | CC50 [µM]
5 | CC(=O)Nc1ccc(-n2nc3ccccc3n2)cc1 | 100
6 | COc1ccc2nn(-c3ccc(OCC(C)(C)C(=O)O)cc3)nc2c1 | > 100
7 | COc1ccc(-n2nc3ccc(C(F)(F)F)cc3n2)cc1 | > 100
8 | FC(F)(F)c1ccc2c(c1)nnn2C[C@@H]1CCCN2CCCC[C@H]12 | > 100

Tested on: not listed separately
Experiment: Cytotoxicity against BHK cells assessed as cell viability after 48 to 96 hrs by MTT assay
Type: cell-based, Mesocricetus auratus
Details: hamster

Row | SMILES | CC50 [µM]
9 | CC(=O)Nc1ccc(-n2nc3ccccc3n2)cc1 | > 100
10 | COc1ccc2nn(-c3ccc(OCC(C)(C)C(=O)O)cc3)nc2c1 | 100
11 | COc1ccc(-n2nc3ccc(C(F)(F)F)cc3n2)cc1 | > 100
12 | FC(F)(F)c1ccc2c(c1)nnn2C[C@@H]1CCCN2CCCC[C@H]12 | > 100

Tested on: not listed separately
Experiment: Cytotoxicity against african green monkey Vero 76 cells assessed as cell viability after 48 to 96 hrs by crystal violet staining method
Type: cell-based
Details: chlorocebus sabaeus

Row | SMILES | CC50 [µM]
13 | CC(=O)Nc1ccc(-n2nc3ccccc3n2)cc1 | > 100
14 | COc1ccc2nn(-c3ccc(OCC(C)(C)C(=O)O)cc3)nc2c1 | 65
15 | COc1ccc(-n2nc3ccc(C(F)(F)F)cc3n2)cc1 | > 100
16 | FC(F)(F)c1ccc2c(c1)nnn2C[C@@H]1CCCN2CCCC[C@H]12 | > 100

Tested on: Bovine viral diarrhea virus 1
Experiment: Antiviral activity against BVDV infected in MDBK cells assessed as inhibition of virus-induced cytopathogenicity after 3 to 4 days by MTT assay
Type: functional, organism-based
Details: Bovine viral diarrhea virus isolates and strains

Row | SMILES | EC50 [µM]
17 | CC(=O)Nc1ccc(-n2nc3ccccc3n2)cc1 | 70
18 | COc1ccc2nn(-c3ccc(OCC(C)(C)C(=O)O)cc3)nc2c1 | 66
19 | COc1ccc(-n2nc3ccc(C(F)(F)F)cc3n2)cc1 | > 100
20 | FC(F)(F)c1ccc2c(c1)nnn2C[C@@H]1CCCN2CCCC[C@H]12 | > 100

Tested on: Yellow fever virus
Experiment: Antiviral activity against YFV infected in BHK-21 cells assessed as inhibition of virus-induced cytopathogenicity after 3 to 4 days by MTT assay
Type: functional, organism-based
Details: not given

Row | SMILES | EC50 [µM]
21 | CC(=O)Nc1ccc(-n2nc3ccccc3n2)cc1 | > 100
22 | COc1ccc2nn(-c3ccc(OCC(C)(C)C(=O)O)cc3)nc2c1 | > 100
23 | COc1ccc(-n2nc3ccc(C(F)(F)F)cc3n2)cc1 | > 100
24 | FC(F)(F)c1ccc2c(c1)nnn2C[C@@H]1CCCN2CCCC[C@H]12 | 27

Tested on: Mammalian orthoreovirus 1
Experiment: Antiviral activity against Reo-1 virus infected in BHK-21 cells assessed as inhibition of virus-induced cytopathogenicity after 3 to 4 days by MTT assay
Type: functional, cell-based
Details: Mammalian orthoreovirus 1, BHK-21

Row | SMILES | EC50 [µM]
25 | CC(=O)Nc1ccc(-n2nc3ccccc3n2)cc1 | 83
26 | COc1ccc(-n2nc3ccc(C(F)(F)F)cc3n2)cc1 | > 100
27 | FC(F)(F)c1ccc2c(c1)nnn2C[C@@H]1CCCN2CCCC[C@H]12 | > 100

Tested on: Coxsackievirus B5
Experiment: Antiviral activity against human CVB5 infected in african green monkey Vero76 cells assessed as inhibition of virus-induced cytopathogenicity after 3 days by plaque reduction assay
Type: functional, organism-based
Details: Enterovirus B, Vero 76, 72 h

Row | SMILES | EC50 [µM]
28 | CC(=O)Nc1ccc(-n2nc3ccccc3n2)cc1 | 40
29 | COc1ccc2nn(-c3ccc(OCC(C)(C)C(=O)O)cc3)nc2c1 | 24
30 | COc1ccc(-n2nc3ccc(C(F)(F)F)cc3n2)cc1 | 80
31 | FC(F)(F)c1ccc2c(c1)nnn2C[C@@H]1CCCN2CCCC[C@H]12 | 38

Tested on: Human orthopneumovirus
Experiment: Antiviral activity against human RSV infected in african green monkey Vero76 cells assessed as inhibition of virus-induced cytopathogenicity after 5 days by plaque reduction assay
Type: functional, organism-based
Details: human respiratory syncytial virus, Vero 76, 120 h

Row | SMILES | EC50 [µM]
32 | CC(=O)Nc1ccc(-n2nc3ccccc3n2)cc1 | > 100
33 | COc1ccc2nn(-c3ccc(OCC(C)(C)C(=O)O)cc3)nc2c1 | 11
34 | COc1ccc(-n2nc3ccc(C(F)(F)F)cc3n2)cc1 | > 100
35 | FC(F)(F)c1ccc2c(c1)nnn2C[C@@H]1CCCN2CCCC[C@H]12 | 90

Tested on: Poliovirus 1
Experiment: Antiviral activity against Human poliovirus 1 Sabin infected in african green monkey Vero76 cells assessed as inhibition of virus-induced cytopathogenicity by plaque reduction assay
Type: functional, organism-based
Details: Enterovirus C, Vero 76

Row | SMILES | EC50 [µM]
36 | CC(=O)Nc1ccc(-n2nc3ccccc3n2)cc1 | > 100
37 | COc1ccc2nn(-c3ccc(OCC(C)(C)C(=O)O)cc3)nc2c1 | > 100
38 | COc1ccc(-n2nc3ccc(C(F)(F)F)cc3n2)cc1 | 40
39 | FC(F)(F)c1ccc2c(c1)nnn2C[C@@H]1CCCN2CCCC[C@H]12 | > 100

Tested on: not listed separately
Experiment: Selectivity index, ratio of CC50 for MDBK cells to EC50 for BVDV
Design: species or system Bovine viral diarrhea virus 1
Details: not given

Row | SMILES | Ratio CC50/EC50
40 | CC(=O)Nc1ccc(-n2nc3ccccc3n2)cc1 | 1.43
41 | COc1ccc2nn(-c3ccc(OCC(C)(C)C(=O)O)cc3)nc2c1 | >1.51

Tested on: not listed separately
Experiment: Selectivity index, ratio of CC50 for BHK-21 cells to EC50 for YFV
Design: species or system Yellow fever virus
Details: not given

Row | SMILES | Ratio CC50/EC50
42 | FC(F)(F)c1ccc2c(c1)nnn2C[C@@H]1CCCN2CCCC[C@H]12 | >3.7

Tested on: not listed separately
Experiment: Selectivity index, ratio of CC50 for african green monkey Vero76 cells to EC50 for human CVB5
Design: species or system Coxsackievirus B5, Vero 76
Details: not given

Row | SMILES | Ratio CC50/EC50
43 | CC(=O)Nc1ccc(-n2nc3ccccc3n2)cc1 | >2.5
44 | COc1ccc2nn(-c3ccc(OCC(C)(C)C(=O)O)cc3)nc2c1 | 2.71
45 | COc1ccc(-n2nc3ccc(C(F)(F)F)cc3n2)cc1 | >1.25
46 | FC(F)(F)c1ccc2c(c1)nnn2C[C@@H]1CCCN2CCCC[C@H]12 | >2.63

Tested on: not listed separately
Experiment: Selectivity index, ratio of CC50 for african green monkey Vero76 cells to EC50 for human RSV
Design: species or system human respiratory syncytial virus, Vero 76
Details: not given

Row | SMILES | Ratio CC50/EC50
47 | COc1ccc2nn(-c3ccc(OCC(C)(C)C(=O)O)cc3)nc2c1 | 5.91
48 | FC(F)(F)c1ccc2c(c1)nnn2C[C@@H]1CCCN2CCCC[C@H]12 | >1.11

Tested on: not listed separately
Experiment: Selectivity index, ratio of CC50 for african green monkey Vero76 cells to EC50 for human Sb-1
Design: species or system Human poliovirus 1 strain Sabin, Vero 76
Details: not given

Row | SMILES | Ratio CC50/EC50
49 | COc1ccc(-n2nc3ccc(C(F)(F)F)cc3n2)cc1 | >2.5

Tested on: Human immunodeficiency virus 1
Experiment: Antiviral activity against HIV-1 infected in MT4 cells assessed as inhibition of virus-induced cytopathogenicity after 4 days by MTT assay
Type: functional, organism-based
Details: Human immunodeficiency virus 1, MT4, 96 h

Row | SMILES | EC50 [µM]
50 | CC(=O)Nc1ccc(-n2nc3ccccc3n2)cc1 | > 100
51 | COc1ccc2nn(-c3ccc(OCC(C)(C)C(=O)O)cc3)nc2c1 | > 100
52 | COc1ccc(-n2nc3ccc(C(F)(F)F)cc3n2)cc1 | > 100
53 | FC(F)(F)c1ccc2c(c1)nnn2C[C@@H]1CCCN2CCCC[C@H]12 | > 100

Target: T1, Peroxisome proliferator-activated receptor alpha (Homo sapiens) (UniProt Q07869)
T1 sequence (whole entry): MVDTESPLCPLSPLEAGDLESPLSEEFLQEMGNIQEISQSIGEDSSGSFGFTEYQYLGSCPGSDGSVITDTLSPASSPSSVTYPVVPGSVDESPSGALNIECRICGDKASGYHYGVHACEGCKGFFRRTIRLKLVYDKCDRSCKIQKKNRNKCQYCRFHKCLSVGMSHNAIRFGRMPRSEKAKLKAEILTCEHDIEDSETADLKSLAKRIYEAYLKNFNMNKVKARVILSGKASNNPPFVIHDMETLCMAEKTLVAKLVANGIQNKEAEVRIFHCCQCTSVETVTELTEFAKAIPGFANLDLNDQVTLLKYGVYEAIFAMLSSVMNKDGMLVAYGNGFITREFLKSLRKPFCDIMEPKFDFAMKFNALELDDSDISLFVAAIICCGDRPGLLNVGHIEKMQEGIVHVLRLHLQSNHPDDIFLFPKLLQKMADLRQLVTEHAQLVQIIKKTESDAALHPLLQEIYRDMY
Experiment: Agonist activity at human PPAR alpha in human HepG2 cells after 20 hrs by luciferase reporter assay
Type: cell-based
Details: not given

Row | SMILES | Activity
54 | COc1ccc2nn(-c3ccc(OCC(C)(C)C(=O)O)cc3)nc2c1 | inactive

Target: T2, Peroxisome proliferator-activated receptor gamma (Homo sapiens) (UniProt P37231)
T2 sequence (whole entry): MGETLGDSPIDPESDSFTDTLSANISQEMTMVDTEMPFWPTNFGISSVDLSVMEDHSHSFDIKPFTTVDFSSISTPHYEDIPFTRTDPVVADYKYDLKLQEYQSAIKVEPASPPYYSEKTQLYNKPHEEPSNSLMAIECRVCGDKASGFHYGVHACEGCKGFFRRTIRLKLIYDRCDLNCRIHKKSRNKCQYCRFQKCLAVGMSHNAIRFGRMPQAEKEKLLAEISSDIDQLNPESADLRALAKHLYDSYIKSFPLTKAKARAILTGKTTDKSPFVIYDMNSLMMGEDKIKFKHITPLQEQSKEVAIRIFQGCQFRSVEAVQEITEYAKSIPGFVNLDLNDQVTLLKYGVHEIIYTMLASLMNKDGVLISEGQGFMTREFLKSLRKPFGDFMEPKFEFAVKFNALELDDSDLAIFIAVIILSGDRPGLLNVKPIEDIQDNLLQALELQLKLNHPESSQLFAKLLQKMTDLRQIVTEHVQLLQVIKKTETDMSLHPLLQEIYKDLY
Experiment: Agonist activity at human PPAR gamma in human HepG2 cells after 20 hrs by luciferase reporter assay
Type: cell-based
Details: not given

Row | SMILES | Activity
55 | COc1ccc2nn(-c3ccc(OCC(C)(C)C(=O)O)cc3)nc2c1 | inactive

Tested on: Human alphaherpesvirus 1
Experiment: Antiviral activity against HSV1
Type: functional, organism-based
Details: not given

Row | SMILES | EC50 [µM]
56 | COc1ccc(-n2nc3ccc(C(F)(F)F)cc3n2)cc1 | > 100
57 | FC(F)(F)c1ccc2c(c1)nnn2C[C@@H]1CCCN2CCCC[C@H]12 | > 100

Tested on: Vesicular stomatitis virus
Experiment: Antiviral activity against VSV
Type: functional, organism-based
Details: not given

Row | SMILES | EC50 [µM]
58 | CC(=O)Nc1ccc(-n2nc3ccccc3n2)cc1 | > 100
59 | COc1ccc2nn(-c3ccc(OCC(C)(C)C(=O)O)cc3)nc2c1 | > 100
60 | COc1ccc(-n2nc3ccc(C(F)(F)F)cc3n2)cc1 | > 100
61 | FC(F)(F)c1ccc2c(c1)nnn2C[C@@H]1CCCN2CCCC[C@H]12 | > 100

Tested on: Vaccinia virus
Experiment: Antiviral activity against Vaccinia virus
Type: functional, organism-based
Details: Orthopoxvirus vaccinia

Row | SMILES | EC50 [µM]
62 | CC(=O)Nc1ccc(-n2nc3ccccc3n2)cc1 | > 100
63 | COc1ccc2nn(-c3ccc(OCC(C)(C)C(=O)O)cc3)nc2c1 | > 100
64 | COc1ccc(-n2nc3ccc(C(F)(F)F)cc3n2)cc1 | > 100
65 | FC(F)(F)c1ccc2c(c1)nnn2C[C@@H]1CCCN2CCCC[C@H]12 | > 100
